Like-named read-outs stand apart in the source and are kept apart here.
How the values were obtained:
[1] = tested on: panel of 260 kinases; settings: concentrations up to 10 μmol/L, cited from earlier work
[2] = tested on: SLC16A1; assay: Compound treatment, SLC16A1 expression by ddPCR in SNU761 cells; type: cell-based, human; settings: 10 μM for 24 hours
Procedure: (§1) FIGS. 14A-14D provide graphs showing that mTOR inhibitors increase SLC16A11, but not SLC16A1 transcript levels. […] SLC16A11 (FIGS. 14A and 14B) and SLC16A1 (FIGS. 14C and 14D) expression was then assessed using droplet digital PCR (ddPCR). Bar plots depict relative fold-changes with respect to DMSO and error bars and standard deviations. Expression is normalized to housekeeping genes TBP or HPRT1.
(§2) A small number of the compounds that made the strongest positive connections to the SLC16A11 gene expression signature were selected and tested. […] Methotrexate was also included, which had been annotated as a dihydrofolate reductase inhibitor. SNU761 cells (derived from a human hepatocellular carcinoma) and NCIH716 cells (derived from a human cecum adenocarcinoma), which both express SLC16A11, were treated with the compounds. […]
(§3) RNA was DNase treated and converted into cDNA using the High-Capacity RNA-to-cDNA kit (Thermo Fisher Scientific). The following FAM-labeled TaqMan Real-Time PCR assays (Thermo Fisher Scientific) were used to quantify gene expression: SLC16A11 (Hs00601062_g1), SLC16A13 (Hs00416832_m1), SLC16A1 (Hs01560299_m1). […] Droplets were generated and analyzed using a QX200 Droplet Generator and Reader system (BioRad). Data was extracted using QuantaSoft (BioRad) and analyzed using Microsoft Excel.

[3] = tested on: SLC16A11; assay: Compound treatment, SLC16A11 expression by ddPCR in primary human hepatocytes; type: cell-based; settings: vs DMSO
Procedure: (§4) SLC16A11 (denoted by A11 when normalized by TBP and A11* for HPRT1), SLC16A13 (A13), and SLC16A1 (A1) in comparison with DMSO treated cells.
(§5) Primary human hepatocytes were purchased from Bioreclamation IVT. Hepatocyte lot used was BHL. Cells were thawed and immediately resuspended in CP media (Bioreclamation IVT) supplemented with torpedo antibiotic (Bioreclamation IVT). Cell concentration and viability were assessed prior to use. Cells were grown in a humidified CO2 incubator, at 37° C.
(§6) SNU761 and NCIH716 cells were plated into 96 well plates at a density of 20,000 cells per well. Hepatocytes were plated into collagen coated 96 well plates (Corning, 354408) at a density of 50,000 cells per well. After 24 hours, cells were treated with compounds at a final concentration of 10 μM or vehicle control for the appropriate amount of time. […]
as §3

[4] = tested on: SLC16A1; assay: Compound treatment, SLC16A1 expression by ddPCR in primary human hepatocytes; type: cell-based; settings: vs DMSO
Procedure: as §4, §5, §6, §3

[5] = tested on: SLC16A11; assay: Compound treatment, SLC16A11 expression by ddPCR in SNU761 cells; type: cell-based, human; settings: SNU761 cells
Summary of the method: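 SNU761 hepatocellular carcinoma cells, plated 24 h, treated with compounds at 10 μM final or vehicle, with treatment times matching the LINCS dataset. SLC16A11 mRNA quantified by TaqMan droplet digital PCR, normalized to TBP or HPRT1.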

[6] = tested on: SLC16A11 (A11); assay: ddPCR based screening assay for modulators of SLC16A11 expression (Z′); type: cell-based, human; settings: SNU 761 cells; compound as positive control
Excerpt: As detailed herein above, SLC16A11 (A11) belongs to a family of monocarboxylate transporters. Expression of A11 was studied in SNU 761 cell lines. These liver cancer cells are ideal for studying SLC16A11 expression because A11 is expressed in higher quantity in liver cells, although expression of the gene in all tissues is extremely low. The 5 SNP risk haplotype causes lowered expression and interferes with protein-protein interactions between A11 and a cofactor protein, indicating loss of function. Therefore, increasing A11 expression in individuals with the risk haplotype is likely beneficial.
The quality of an assay can be quantified by Z′, a measure of how well the assay can differentiate between the positive and negative controls. Using the formula: […]
First the cells were treated with inhibitor compounds, their RNA was extracted, and that RNA was used as a template to create DNA. Then, the DNA was quantified using droplet digital PCR (ddPCR), analyzed and quantified using QuantaSoft™ (BioRad). […]
From the QuantaSoft scoring of each droplet, the means and standard deviations of SLC16A11 expression levels was determined in response to compound treatment. […] Points in light gray had the gene of interest and were scored as positive (FIG. 17C). SLC16A11 was scored in the graph. […]

[7] = tested on: SLC16A13; assay: Compound treatment, SLC16A13 expression by ddPCR in primary human hepatocytes; type: cell-based; settings: vs DMSO
Procedure: as §4, §5, §6, §3

[8] = tested on: SLC16A11; assay: Compound treatment, SLC16A11 expression by ddPCR in NCIH716 cells; type: cell-based, human; settings: same concentrations and treatment times as LINCS
Procedure: A small number of the compounds that made the strongest positive connections to the SLC16A11 gene expression signature were selected and tested. […] Methotrexate was also included, which had been annotated as a dihydrofolate reductase inhibitor. SNU761 cells (derived from a human hepatocellular carcinoma) and NCIH716 cells (derived from a human cecum adenocarcinoma), which both express SLC16A11, were treated with the compounds. The same compound concentrations and treatment times were used as in the LINCS dataset experiments. […] For normalization, a different housekeeper gene, HPRT1, was used and obtained similar results with the mTOR inhibitors (FIGS. 14A and 14B).
SNU761 (human hepatocellular carcinoma) and NCIH716 (human cecum adenocarcinoma) were cultured in RPMI Medium 1640 supplemented with 10% Fetal Bovine Serum (FBS), 100 μg/ml Streptomycin and 100 U/ml Penicillin. Cells were grown in a humidified CO2 incubator, at 37° C.
For the unbiased approach taken to investigate the compounds that connected to the SLC16A11 gene expression signature, compounds were obtained from compound management at the Broad Institute.
SNU761 and NCIH716 cells were plated into 96 well plates at a density of 20,000 cells per well. Hepatocytes were plated into collagen coated 96 well plates (Corning, 354408) at a density of 50,000 cells per well. After 24 hours, cells were treated with compounds at a final concentration of 10 μM or vehicle control for the appropriate amount of time.
At the time of collection, cells in 96 well plates were lysed by directly adding 50 μL of RLT buffer (Qiagen). […]
as §3

[9] = tested on: SLC16A1; assay: Compound treatment, SLC16A1 expression by ddPCR in NCIH716 cells; type: cell-based, human; settings: 10 μM for 24 hours
Procedure: as §1, §2, §3

COc1ccc(-c2ccc3c(N4CCOC[C@@H]4C)nc(N4CCOC[C@@H]4C)nc3n2)cc1CO [AZD-8055, [5-[2,4-Bis((3S)-3-methylmorpholin-4-yl)pyrido[2,3-d]pyrimidin-7-yl]-2-methoxyphenyl]methanol]
activity against a panel of 260 kinases [1]: not show significant activity | activity against a panel of 260 kinases ([1]; listed as AZD8055): no significant activity | SLC16A1 expression with respect to DMSO [2]: slight decrease | SLC16A11 expression [3]: increase SLC16A11 expression | SLC16A1 expression [4]: decreased | SLC16A11 (A11) transcript levels, dose response curve ([5]; FIG. 16 top panel): increase | SLC16A11 transcript levels, compound treated compared to DMSO treated cells ([5]; same concentrations and treatment times as LINCS, ddPCR): about 3 fold | avg_fc (SLC16A11 expression, compound treated vs DMSO treated cells) ([5]; same doses and treatment times as in the LINCS dataset): 4.253 | increase in SLC16A11 expression, compound treated compared to DMSO treated cells ([5]; unbiased test of 59 top and 20 middle LINCS compounds, LINCS doses and times): ~4 fold | A11 expression in manual ddPCR assay [6]: increased | SLC16A13 expression [7]: decreased | SLC16A11 transcript levels, compound treated compared to DMSO treated cells [8]: about 3 fold | SLC16A1 expression with respect to DMSO [9]: slight decrease

Reference: US11471462B2, “Compositions and methods for detecting and treating diabetes” (THE BROAD INSTITUTE, INC., priority 2016, dated 2022)
